Like-named read-outs stand apart in the source and are kept apart here.
Assays:
human TRPM8 [1] = molecular target: T1, human TRPM8 (Homo sapiens, UniProt Q7Z2W7); assay: In vitro human TRPM8 fluorescence calcium flux assay (recombinant CHO cells, Fluo4-AM, FDSS6000); format: cell-based; details: recombinant CHO cells expressing human TRPM8; menthol-related EC50, normalized to 100 μM menthol
T1 construct: expressed in transfected cells; host or cells: CHO (p658 mammalian expression vector)
Procedure, shortened: (§1)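 CHO cells stably expressing pig or human TRPM8, loaded with 2 μM Fluo4-AM in HBSS/20 mM HEPES/0.1% BSA/2.5 mM probenecid for 1 h at RT. Intracellular calcium read kinetically for 3 min after compound addition. EC50 from sixteen-point curves, normalized to 100 μM menthol maximal response.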

human TRPM8 [2] = molecular target: T1, human TRPM8; assay: In vitro human TRPM8 automated patch-clamp assay (SyncroPatch 384PE, CHO cells); format: cell-based; details: CHO cells expressing human TRPM8, 28° C.
Procedure, shortened: (§2)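 Whole-cell automated patch clamp on engineered CHO lines at 28 °C, held at −60 mV, with −80 to +80 mV ramps every 5 s; one compound concentration per well. Peak current minus pre-addition baseline was normalised to no-compound control and Emax, and EC50 was fitted; 200 μM menthol wells served as control.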

pig TRPM8 [3] = molecular target: T2, pig TRPM8 (Sus scrofa, UniProt F1SM15); assay: In vitro pig TRPM8 fluorescence calcium flux assay (recombinant CHO cells, Fluo4-AM, FDSS6000); format: cell-based; details: recombinant CHO cells expressing pig TRPM8; menthol-related EC50, normalized to 100 μM menthol
T2 construct: expressed in transfected cells; host or cells: CHO (pcDNA5/FRT/TO vector; hygromycin B and blasticidin selection)
Procedure, shortened: as §1

pig TRPM8 [4] = molecular target: T2, pig TRPM8; assay: In vitro pig TRPM8 automated patch-clamp assay (SyncroPatch 384PE, CHO cells); format: cell-based; details: CHO cells expressing pig TRPM8, 28° C.
Procedure, shortened: as §2

[5] = system: Male castrated German Landrace pigs; assay: In vivo assay: enhancement of swallowing in anesthetized pigs (manometry with pressure probe in the mouth); details: Sus scrofa, anesthetized pig, dose per pig 10 mg, injected in 1 ml vehicle into the oral cavity
Description: For testing the efficacy of TRPM8 agonists for enhancing swallowing, experiment using the pig model can be conducted according to assay described below. The efficacy can be compared to a vehicle control.
Male castrated German Landrace pigs (weight range of 20 to 35 kg) were used. Anesthesia was induced by injecting 20 ml of a urethane solution (20 g/100 mL dissolved in saline) into an ear vein corresponding to a dose of around […]. Anesthesia was maintained by continuous infusion of 15-20 mL per hour of the urethane solution, which was infused into an epigastric vein, and additionally by infusion of Zoletil and Rompun (500 mg Zoletil is disssovled in 10 ml of Rompun 2%, then diluted 1:10 with saline and 3-5 mL per hour of this diluted solution. Bupivacain 0.5% JENAPHARM@ was injected for additional infiltration anesthesia. Anesthesia was monitored via pulsoximetry (ear) and regular reflex testing for pain. Body temperature was monitored and maintained by an infrared lamp.
Preparation of pigs: Swallowing responses were assessed by manometry with a pressure probe placed into the mouth of the pig. The pressure probe consisted of a plastic tube (diameter 3.3 mm) to which a small balloon was attached. The tube was advanced about 12-14 cm into the mouth related to the snout. The balloon was then inflated with air to yield a pressure of 20-30mbar (vehicle). Ideally a swallowing response with 1 ml of fluid raised this pressure by 20-50mbar which was then referred to as the swallowing pressure (the increment of this pre-set pressure in the inflated balloon after swallowing) to be further enhanced by an effective test drug.
The free end of the tube was connected to a differential pressure transducer MPX Type 399/2 (Hugo Sachs Elektronik-Harvard Apparatus) and a Hugo Sachs Plugsys-amplifier system. The biological signals were recorded by a Hugo Sachs Plugsys-amplifier system and continuously stored on a computer hard disk by an on line data acquisition and analysis system (Hem 4.2 Notocord Systems, Croissy-sur-Seine, France).
A second tube referred to as injection tube was placed dorsally to the manometer tube to enable the administration of the vehicle that induced the baseline swallowing activity, or of this same vehicle containing the test compound.
Induction and assessment of swallowing activity: 0.5h after anesthesia induction 1 ml of a fluid or the vehicle for the test drug was injected into the injection tube placed into the oral cavity. The number of swallows was counted and the highest-pressure increment was registered. Challenges with vehicle were repeated at intervals of 30 min until two consecutive vehicle challenges show an about equal swallowing response. The next challenge was the vehicle loaded with the test drug (otherwise same procedure). The efficacy of a compound to enhance swallowing as shown in Table 7 was expressed as the % increase in pressure and frequency of swallowing after administration of the compound compared to the pressure and frequency recorded for its vehicle administered just before.

[6] = frequency of swallowing compared with vehicle administered just before, read-out: % increase frequence vs vehicle
[7] = swallowing pressure compared with vehicle administered just before, read-out: % increase pressure vs vehicle

T1 sequence (Q7Z2W7 whole entry): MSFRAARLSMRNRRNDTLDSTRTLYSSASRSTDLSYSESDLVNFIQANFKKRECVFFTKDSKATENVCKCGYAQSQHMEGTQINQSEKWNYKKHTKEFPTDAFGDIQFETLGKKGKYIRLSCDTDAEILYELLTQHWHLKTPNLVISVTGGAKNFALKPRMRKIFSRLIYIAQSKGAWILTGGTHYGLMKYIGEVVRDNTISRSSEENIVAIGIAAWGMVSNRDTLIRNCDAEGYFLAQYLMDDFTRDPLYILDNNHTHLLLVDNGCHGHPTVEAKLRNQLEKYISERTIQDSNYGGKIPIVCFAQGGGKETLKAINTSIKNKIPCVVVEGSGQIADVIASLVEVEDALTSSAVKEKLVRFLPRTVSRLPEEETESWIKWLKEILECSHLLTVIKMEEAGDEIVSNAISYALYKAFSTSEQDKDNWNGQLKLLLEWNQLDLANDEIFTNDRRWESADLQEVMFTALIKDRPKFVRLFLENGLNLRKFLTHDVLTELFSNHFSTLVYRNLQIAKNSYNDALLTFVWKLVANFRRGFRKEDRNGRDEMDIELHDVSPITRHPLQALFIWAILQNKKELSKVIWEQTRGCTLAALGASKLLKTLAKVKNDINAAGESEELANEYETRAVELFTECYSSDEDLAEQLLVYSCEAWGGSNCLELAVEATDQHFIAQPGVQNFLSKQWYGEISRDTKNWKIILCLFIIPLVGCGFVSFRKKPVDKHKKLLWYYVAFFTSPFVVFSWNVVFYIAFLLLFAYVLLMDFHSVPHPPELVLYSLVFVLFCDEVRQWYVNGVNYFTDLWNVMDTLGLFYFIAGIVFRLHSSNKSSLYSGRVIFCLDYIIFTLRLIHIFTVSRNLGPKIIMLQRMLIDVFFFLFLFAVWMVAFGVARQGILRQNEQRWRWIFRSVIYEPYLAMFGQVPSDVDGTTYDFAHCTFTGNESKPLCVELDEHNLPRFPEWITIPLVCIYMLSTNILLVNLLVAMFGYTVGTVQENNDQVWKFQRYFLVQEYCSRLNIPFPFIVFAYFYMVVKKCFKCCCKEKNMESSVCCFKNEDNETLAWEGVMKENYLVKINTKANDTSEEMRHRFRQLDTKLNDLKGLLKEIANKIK
T2 sequence (F1SM15 1-1104): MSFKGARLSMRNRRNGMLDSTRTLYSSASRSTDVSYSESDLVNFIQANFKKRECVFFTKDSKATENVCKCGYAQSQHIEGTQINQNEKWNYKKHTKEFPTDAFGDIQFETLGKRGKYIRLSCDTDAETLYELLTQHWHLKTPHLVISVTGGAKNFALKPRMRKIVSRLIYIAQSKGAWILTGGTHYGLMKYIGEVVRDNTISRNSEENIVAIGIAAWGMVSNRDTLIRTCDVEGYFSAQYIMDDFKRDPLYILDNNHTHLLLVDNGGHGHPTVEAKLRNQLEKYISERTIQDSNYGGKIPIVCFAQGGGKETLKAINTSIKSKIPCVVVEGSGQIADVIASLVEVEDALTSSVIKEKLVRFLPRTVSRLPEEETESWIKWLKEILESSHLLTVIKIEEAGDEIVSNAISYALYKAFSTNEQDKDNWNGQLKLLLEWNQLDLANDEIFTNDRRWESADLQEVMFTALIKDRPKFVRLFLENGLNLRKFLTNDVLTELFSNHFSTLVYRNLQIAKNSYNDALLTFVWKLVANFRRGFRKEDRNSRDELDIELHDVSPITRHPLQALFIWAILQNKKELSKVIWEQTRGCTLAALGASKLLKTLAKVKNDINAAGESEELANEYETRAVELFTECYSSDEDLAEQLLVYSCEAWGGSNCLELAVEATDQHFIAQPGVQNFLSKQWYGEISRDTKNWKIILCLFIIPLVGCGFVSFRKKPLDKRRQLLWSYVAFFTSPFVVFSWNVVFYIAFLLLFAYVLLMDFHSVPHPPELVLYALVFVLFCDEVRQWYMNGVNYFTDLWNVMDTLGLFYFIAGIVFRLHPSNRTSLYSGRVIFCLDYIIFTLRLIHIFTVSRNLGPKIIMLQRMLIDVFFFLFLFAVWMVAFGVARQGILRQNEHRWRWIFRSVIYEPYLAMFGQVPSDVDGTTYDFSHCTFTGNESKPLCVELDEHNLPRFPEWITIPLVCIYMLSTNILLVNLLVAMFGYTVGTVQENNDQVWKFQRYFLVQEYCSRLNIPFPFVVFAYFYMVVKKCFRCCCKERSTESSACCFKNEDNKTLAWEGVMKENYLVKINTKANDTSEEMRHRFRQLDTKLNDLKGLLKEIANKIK

Row | EC50 (human TRPM8 [1]) [nM] | EC50 (human TRPM8 [2]) [nM] | EC50 (pig TRPM8 [3]) [nM] | EC50 (pig TRPM8 [4]) [nM] | Compound | change in vivo at 10 mg [5, 6] [%] | change in vivo at 10 mg [5, 7] [%]
1 | 2.5 | 1440 | 1.4 | 1760 | CC(C)[C@@H]1CC[C@@H](C)C[C@@]1(O)C(=O)NCCc1cccc(O)c1 [Example 40, (1S,2S,5R)-1-hydroxy-N-(3-hydroxyphenethyl)-2-isopropyl-5-methylcyclohexane-1-carboxamide] | 62 | 393
2 | 2.8 | 541 | 1.2 | 467 | CC(C)[C@@H]1CC[C@@H](C)C[C@@]1(O)C(=O)NCC(F)(F)c1ccccc1 [Example 4, (1S,2S,5R)—N-(2,2-difluoro-2-phenylethyl)-1-hydroxy-2-isopropyl-5-methylcyclohexane-1-carboxamide] | 417 | 221
3 | 25.2 | 3600 | 34.5 | 3840 | CC(C)[C@@H]1CC[C@@H](C)C[C@@]1(O)C(=O)NCCc1ccccc1C(=O)OCCO [Example 22, 2-hydroxyethyl 2-(2-((1S,2S,5R)-1-hydroxy-2-isopropyl-5-methylcyclohexane-1-carboxamido)ethyl) benzoate] | 500 | 182
4 | 14.5 | 2150 | 32.8 | 3400 | CC(C)[C@@H]1CC[C@@H](C)C[C@@]1(O)C(=O)NCCc1ccccc1OC[C@@H](O)CO [Example 25, (1S,2S,5R)—N-(2-((S)-2,3-dihydroxypropoxy)phenethyl)-1-hydroxy-2-isopropyl-5-methylcyclohexane-1-carboxamide] | 173 | 168
5 | 226 | 5650 | 91.1 | 8730 | CC(C)OC(=O)CNC(=O)[C@]1(O)C[C@H](C)CC[C@H]1C(C)C [Example 54, isopropyl ((1S,2S,5R)-1-hydroxy-2-isopropyl-5-methylcyclohexane-1-carbonyl)glycinate] | 75 | 64
6 | 27.7 | 1500 | 25.2 | 4250 | CC(C)[C@@H]1CC[C@@H](C)C[C@@]1(O)C(=O)NCCc1ccccc1OCC(N)=O [Example 81, (1S,2S,5R)—N-(2-(2-amino-2-oxoethoxy)phenethyl)-1-hydroxy-2-isopropyl-5-methyl cyclohexane-1-carboxamide] | 247 | 315
7 | 10.3 | 2720 | 6.7 | 3300 | CC(C)[C@@H]1CC[C@@H](C)C[C@@]1(O)C(=O)NCCc1ccccc1CO [Example 14, (1S,2S,5R)-1-hydroxy-N-(2-(hydroxymethyl)phenethyl)-2-isopropyl-5-methylcyclohexane-1-carboxamide] | 62 | 73
8 | 26 | 1300 | 24.3 | 864 | CC(C)[C@@H]1CC[C@@H](C)C[C@@]1(O)C(=O)NCCc1ccccc1CCO [Example 52, (1S,2S,5R)-1-hydroxy-N-(2-(2-hydroxyethyl)phenethyl)-2-isopropyl-5-methylcyclohexane-1-carboxamide] | 172 | 202
9 | 65.1 | 5500 | 56.3 | 5290 | CC(C)[C@@H]1CC[C@@H](C)C[C@@]1(O)C(=O)NCCc1cccc(C(=O)OCCO)c1 [Example 21, 2-hydroxyethyl 3-(2-((1S,2S,5R)-1-hydroxy-2-isopropyl-5-methylcyclohexane-1-carboxamido)ethyl) benzoate] | 171 | 181
10 | 2.6 | 53 | 5.7 | 57 | CC(C)[C@@H]1CC[C@@H](C)C[C@@]1(O)C(=O)NC[C@@H](NC(=O)[C@H](C)N)c1ccccc1 [Example 63, (1S,2S,5R)—N—((S)-2-((S)-2-aminopropanamido)-2-phenylethyl)-1-hydroxy-2-isopropyl-5-methylcyclohexane-1-carboxamide] | 191 | 186
11 | 40.2 | 1800 | 82 | 3970 | CC(C)[C@@H]1CC[C@@H](C)C[C@@]1(O)C(=O)NCCc1ccccc1OCCCO [Example 80, (1S,2S,5R)-1-hydroxy-N-(2-(3-hydroxypropoxy)phenethyl)-2-isopropyl-5-methylcyclohexane-1-carboxamide] | 91 | 86
12 | 7.8 | 3030 | 4.5 | 823 | CC(C)[C@@H]1CC[C@@H](C)C[C@@]1(O)C(=O)NCCc1ccccc1 [Example 51, (1S,2S,5R)-1-hydroxy-2-isopropyl-5-methyl-N-phenethylcyclohexane-1-carboxamide] | 250 | 186

From patent US20240124408A1 (Sanofi, priority 2020, published 2024)
